Bounds are passed on as bounds.

The values below come from the Kinase Knowledgebase extract (Sharma et al. 2016).

The target in assay [1] is EGFR (murine) (UniProt P00533). The settings on record: for IC50: her 14.
Assay [2] concerns the target EGFR (murine) (UniProt P00533). Conditions: her 14.
The target of the next assay is EGFR (UniProt P00533).
Sequence of EGFR (P00533 whole entry, looked up): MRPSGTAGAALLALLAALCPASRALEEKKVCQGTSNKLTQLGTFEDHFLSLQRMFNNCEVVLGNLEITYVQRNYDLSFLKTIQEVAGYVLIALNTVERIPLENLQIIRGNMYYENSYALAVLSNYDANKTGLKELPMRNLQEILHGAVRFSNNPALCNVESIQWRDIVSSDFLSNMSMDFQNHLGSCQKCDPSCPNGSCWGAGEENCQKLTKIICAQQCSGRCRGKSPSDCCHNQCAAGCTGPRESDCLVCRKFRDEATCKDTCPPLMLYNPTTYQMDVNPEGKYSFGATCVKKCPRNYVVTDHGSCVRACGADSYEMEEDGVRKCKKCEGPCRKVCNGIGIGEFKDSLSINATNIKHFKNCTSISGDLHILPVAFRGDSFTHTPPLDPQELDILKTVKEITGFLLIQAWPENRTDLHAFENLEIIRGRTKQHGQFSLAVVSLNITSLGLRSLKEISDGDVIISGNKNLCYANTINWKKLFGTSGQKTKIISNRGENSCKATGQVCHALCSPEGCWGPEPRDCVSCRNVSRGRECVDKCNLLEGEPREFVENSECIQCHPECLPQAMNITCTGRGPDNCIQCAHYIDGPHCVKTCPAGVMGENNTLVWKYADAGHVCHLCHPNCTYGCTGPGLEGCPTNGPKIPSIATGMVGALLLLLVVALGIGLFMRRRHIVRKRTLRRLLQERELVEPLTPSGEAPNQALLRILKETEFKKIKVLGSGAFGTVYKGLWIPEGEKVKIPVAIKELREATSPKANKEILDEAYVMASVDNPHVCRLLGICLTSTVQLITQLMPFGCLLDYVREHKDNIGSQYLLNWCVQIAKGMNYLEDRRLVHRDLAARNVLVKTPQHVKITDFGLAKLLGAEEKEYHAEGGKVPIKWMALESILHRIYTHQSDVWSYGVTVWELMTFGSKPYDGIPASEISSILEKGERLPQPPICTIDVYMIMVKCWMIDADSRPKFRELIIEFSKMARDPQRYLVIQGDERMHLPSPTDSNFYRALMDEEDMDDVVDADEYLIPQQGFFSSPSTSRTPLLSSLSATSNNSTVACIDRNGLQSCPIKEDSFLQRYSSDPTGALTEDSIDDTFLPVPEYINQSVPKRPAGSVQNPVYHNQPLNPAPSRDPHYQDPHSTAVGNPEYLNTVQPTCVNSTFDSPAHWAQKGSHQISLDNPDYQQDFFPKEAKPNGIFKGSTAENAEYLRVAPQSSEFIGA

Sequence of EGFR (murine) (P00533 whole entry, looked up): as above

As usually defined, the IC50 is the point on the concentration scale where inhibition reaches its midpoint. Lower therefore signals greater potency. Compound `N#C/C(=C\c1ccc(O)c(O)c1)C(=O)NC1CCCCC1` had an IC50 with EGFR (murine) [1] of 50 µM. That is a double-digit micromolar value.
In the case of `Cc1cccc(C)c1NC(=O)/C(C#N)=C/c1ccc(O)c(O)c1`, the IC50 in the assay with EGFR (murine) [1] is more than 20 µM.
For the compound `N#C/C(=C\c1ccc(O)c(O)c1)C(=O)Nc1ccccc1Cl`, the IC50 with EGFR (murine) [2] was 35 µM; in the assay with EGFR (murine) [1] it was 12 µM.
On EGFR, `N#CC(C#N)=Cc1cccc(O)c1` returned an IC50 of 375 µM.
For the compound `N#CC(C#N)=C1CCc2cc(O)c(O)cc21`, the IC50 was 30 µM with EGFR (murine) [2] and more than 150 µM with EGFR (murine) [1].
The inhibition is how much of the control response was suppressed. Read a high inhibition as a strong effect. Turning to `CC(NC(=O)/C(C#N)=C/c1ccc(O)c(O)c1)c1ccccc1` (stereo not given), the values for the IC50 with EGFR (murine) [2] and in the assay with EGFR (murine) [1] were 3.5 µM and 10 µM, respectively. Also, in the assay with EGFR (murine) [1] (her 14, dose or concentration not given here), the inhibition was 0.88%.
`N#CC(C#N)=Cc1ccc2[nH]ccc2c1`: the IC50 with EGFR (murine) [2] was more than 100 µM.
`N#CC(C#N)=Cc1cc[n+]([O-])cc1` had an IC50 on EGFR of 1300 µM.
Turning to `Cc1ccc(C(=O)/C(C#N)=C/c2ccc(O)c(O)c2)cc1`, the IC50 with EGFR (murine) [2] was 7 µM; with EGFR (murine) [1] it was 100 µM.
The corresponding values for `N#C/C(=C\c1ccc(O)c(O)c1)C(=O)N1CCc2ccccc21` are 25 µM and 100 µM.
In the case of `N#CC(C#N)=C1C(=O)Nc2ccc([N+](=O)[O-])cc21`, the IC50 with EGFR (murine) [2] came out at 20 µM.
As to `N#C/C(=C\c1ccc(O)c(O)c1)C(=O)NCCCCc1ccccc1`, the IC50 with EGFR (murine) [2] was found to be 3 µM; in the assay with EGFR (murine) [1], 10 µM.
Compound `N#C/C(=C/c1ccc(O)c(O)c1)C(=O)NC1CCCCC1` yielded an IC50 with EGFR (murine) [2] of 15 µM.
Regarding `N#C/C(=C/c1ccc(O)c(O)c1)C(=O)NCc1ccccc1`, the IC50 with EGFR (murine) [2] was determined as 3.5 µM.
With `N#C/C(=C\c1ccc(O)c(O)c1)C(=O)c1ccc([N+](=O)[O-])cc1`, the half-maximal inhibitory concentration (IC50) was 20 µM in the assay with EGFR (murine) [2] and less than 20 µM with EGFR (murine) [1].
Consider `COc1cc(C=C(C#N)C#N)ccc1O`, for which the IC50 on EGFR was 200 µM.
As for `N#C/C(=C\c1ccc(O)c(O)c1)C(=O)c1ccc(F)cc1`, the IC50 is 20 µM in the assay with EGFR (murine) [2] and 80 µM with EGFR (murine) [1].
For `N#C/C(=C\c1ccc(O)c(O)c1)C(=O)c1ccccc1`, the IC50 with EGFR (murine) [2] came to 15 µM; with EGFR (murine) [1], 120 µM.
In the case of `N#C/C(=C\c1ccc(O)c(O)c1)C(=O)NCCCc1ccccc1`, the IC50 came out at 2.5 µM in the assay with EGFR (murine) [2] and 25 µM with EGFR (murine) [1].
Consider `N#CC(C#N)=C1C(=O)Nc2cc(O)c(O)cc21`, for which the IC50 with EGFR (murine) [2] is more than 16 µM.
As to `N#C/C(=C\c1ccc(O)c(O)c1)C(N)=O`, the values for the IC50 against EGFR, in the assay with EGFR (murine) [2] and in the assay with EGFR (murine) [1] were 10 µM, 15 µM and 60 µM, respectively.
Take `COc1cc2c(cc1O)NC(=O)C2=C(C#N)C#N`: the IC50 with EGFR (murine) [2] is not below 120 µM.
